Literature values, collected in publication PMC7285658 (Chemical communications (Cambridge, England), 2020).

Target: RSK1/2
Conditions: selective inhibitor of RSK1/2

CC(=O)O[C@@H]1[C@@H](OC(C)=O)[C@@H](O)[C@H](Oc2c(-c3ccc(O)cc3)oc3cc(O)cc(O)c3c2=O)O[C@H]1C [SL0101]
Ki: ~1 µM
